# According to patent US9463252B2, “Auristatin drug linker conjugates” (priority 2008, dated 2016):
# Non-standard residues stand in square brackets, D forms with d. Residues, ends and D or L forms follow the SMILES beside them. *: point of attachment. Dolaproine = CO[C@@H]([C@@H]1CCCN1)[C@@H](C)C(=O)O; Hexanoyl(6-maleimido) = O=C1C=CC(=O)N1CCCCCC(=O)*; Dil = CC[C@H](C)[C@H](NC)[C@@H](CC(=O)O)OC; NMeV = CN[C@H](C(=O)O)C(C)C
# Legend:
# 786-O = assay: Cytotoxicity of Auristatin-Peptide-h1F6 conjugates, resazurin assay; type: cell-based, human; details: for IC50 786-0: Table 4
# Source text: (§1) The conjugates contain approximately 4 drugs per antibody.
# LP-1 = assay: as above; type: cell-based, human
# Source text: as §1
# Caki-1 = assay: as above; type: cell-based
# Source text: as §1
# L428 [1] = assay: as above; type: cell-based; details: for IC50 L428: ~4 drugs/Ab
# Source text: as §1
# U251 = assay: as above; type: cell-based; details: Table 4, ~4 drugs/Ab
# Source text: as §1
# UMRC-3 = assay: as above; type: cell-based
# Source text: as §1
# HCT-116 (CD70−) = assay: Cytotoxicity of Auristatin-Peptide-h1F6 conjugates, CD70- control cell line; type: cell-based
# Source text: as §1
# Karpas 299 = assay: Cytotoxicity of Auristatin-Peptide-cAC10 conjugates on CD30+ cells; type: cell-based, human
# Method: (§2) Following the procedure described in Example 57, Auristatin-Dipeptide-cAC10 antibody conjugates were evaluated on CD30+ positive cell lines, Karpas 299, L428 and L540cy. In addition, a control conjugate, cAC10-vc-PABC-MMAF, was used. […] The conjugates contain approximately 4 drugs per antibody.
# (§3) Following the procedure described as Examples 57 and 58, the activities of Auristatin-Peptide-cAC10 conjugates were evaluated on CD30^+ cells, such as Karpas 299, L428, and L540cy. The activities of Auristatin-Peptide-hBU12 conjugates were evaluated on CD19^+ cells such as Ramos, SUDHL-4, and ARH-77. The activities of Auristatin-Peptide-anti-LIV-1 conjugates were evaluated on LIV-1 positive cell lines MCF-7 and SKOV-3. The activities of Auristatin-Peptide-BR96 conjugates were evaluated on Le^y positive cells H3396, RCA, and L2987. All conjugates contain approximately 4 drugs per antibody.
# L540cy = assay: as above; type: cell-based, human
# Method: as §2, §3
# L428 [2] = assay: as above; type: cell-based
# Method: as §2, §3
# ARH-77 = assay: Cytotoxicity of Auristatin-Peptide-hBU12 conjugates on CD19+ cells; type: cell-based; details: Table 11, ~4 drugs per antibody
# Method: as §3
# Ramos = assay: as above; type: cell-based; details: Table 11, ~4 drugs per antibody
# Method: as §3
# SUDHL-4 = assay: as above; type: cell-based; details: Table 11, ~4 drugs per antibody
# Method: as §3
# MCF-7 = assay: Cytotoxicity of Auristatin-Peptide-anti-LIV-1 conjugates on LIV-1 positive cells; type: cell-based; details: Table 11, ~4 drugs per antibody
# Method: as §3
# SKOV-3 = assay: as above; type: cell-based; details: Table 11, ~4 drugs per antibody
# Method: as §3
# H3396 = assay: Cytotoxicity of Auristatin-Peptide-BR96 conjugates on Le^y positive cells; type: cell-based; details: Table 11, ~4 drugs per antibody
# Method: as §3
# L2987 = assay: as above; type: cell-based; details: Table 11, ~4 drugs per antibody
# Method: as §3
# RCA = assay: as above; type: cell-based; details: Table 11, ~4 drugs per antibody
# Method: as §3
# Caki-2 = assay: Cytotoxicity of Auristatin-Peptide-h1F6 conjugates, resazurin assay; type: cell-based; details: Table 5; h1F6 conjugates, ~4 drugs/Ab
# Method: as §1
# Following the procedure described as Examples 57 and 58, Auristatin-Peptide-h1F6 conjugates were evaluated on CD70^+ cell, such as 786-O, Caki-1, Caki-2, and L428. Conjugates contain approximately 4 drugs per antibody.
# [3] = Tolerability (MTD) of conjugates in mice; type: in vivo, mouse; details: h1F6 conjugates; for tolerability at 100 mg/kg dose (in words): single dose 100 mg/kg
# Method: The tolerability, measured as maximum tolerated dose (MTD), was determined in mice based on animals' weight loss after treatment. Animals were usually monitored for 14 days. A conjugate is considered to be tolerated at a determined dose if single iv treatment at such dose results in a transient weight loss of no more than 20% of initial body weight of animals and no other signs of toxicity are observed. […] AF-Met-(D)Lys and AF-Asn-(D)Lys conjugates were tolerated at doses as high as 100 mg/kg (FIG. 7). Corresponding conjugates of auristatins containing Methionine (AM) and Tryptophan (AW) at the C-terminal position of the drug were tolerated even better, up to 150 mg/kg (FIG. 8). […] Thus, the Auristatin-Dipeptide Drug Linkers provide ADCs with significant therapeutic window for therapeutic treatment (e.g., cancer).
# [4] = Table 4, h1F6 conjugates, ~4 drugs/Ab
# [5] = Table 7, h1F6 conjugates, AF vs MMAF
# [6] = Table 8, h1F6 conjugates, D vs L amino acid in second linker position
# [7] = Table 9, h1F6-Drug(4) conjugates, mono- vs dipeptide linker
# [8] = Table 11, ~4 drugs per antibody
# [9] = Table 5, h1F6 conjugates, ~4 drugs/Ab
Compound,"IC50 786-0 (786-O; h1F6 conjugates, ~4 drugs/Ab) [ng/mL]",IC50 LP-1 (LP-1; [4]),IC50 Caki-1 (Caki-1; [4]) [ng/mL],"IC50 L428 (L428 [1]; Table 4, h1F6 conjugates) [ng/mL]",IC50 U251 (U251) [ng/mL],IC50 UMRC-3 (UMRC-3; [4]) [ng/mL],"IC50 HCT-116 (CD70−) (HCT-116 (CD70−); Table 4, ~4 drugs/Ab) [ng/mL]","IC50 Karpas 299 (Karpas 299; Table 6, ~4 drugs/Ab) [ng/mL]","IC50 L540cy (L540cy; Table 6, ~4 drugs/Ab) [ng/mL]","IC50 L428 (L428 [2]; Table 6, ~4 drugs/Ab) [ng/mL]",other results
AF-Isoleucine-Proline-diaminoethane-propionyl maleimide [AF-Ile-Pro],9.8,219 ng/mL,9,5,45,16,>1000,0.6,0.7,0.1,–
AF-Phenylglycine-(D)Lysine-diaminoethane-propionyl maleimide [AF-PhenylGly-(D)Lys],339,">10,000 ng/mL",44,275,98,1096,>1000,21,6,2,–
AF-Methionine-(D)Lysine-diaminoethane-propionyl maleimide [AF-Met-(D)Lys],55,">10,000 ng/mL",25,1698,98,132,>1000,2,3,1.5,IC50 786-O (786-O; [5]): 12 ng/mL; IC50 786-O (786-O; [6]): 12 ng/mL; IC50 786-O (786-O; [7]): 12 ng/mL; IC50 LP-1 (LP-1; [5]): >1000 ng/mL; IC50 LP-1 (LP-1; [6]): >1000 ng/mL; IC50 LP-1 (LP-1; [7]): >1000 ng/mL; IC50 Caki-1 (Caki-1; [5]): 9 ng/mL; IC50 Caki-1 (Caki-1; [6]): 9 ng/mL; IC50 Caki-1 (Caki-1; [7]): 9 ng/mL; IC50 L-428 (L428 [1]; [5]): 158 ng/mL; IC50 L-428 (L428 [1]; [6]): 158 ng/mL; IC50 L-428 (L428 [1]; [7]): 158 ng/mL; IC50 UMRC-3 (UMRC-3; [5]): 182 ng/mL; IC50 UMRC-3 (UMRC-3; [6]): 182 ng/mL; IC50 UMRC-3 (UMRC-3; [7]): 182 ng/mL
"CC[C@H](C)[C@@H]([C@@H](CC(=O)N1CCC[C@H]1[C@H](OC)[C@@H](C)C(=O)N[C@@H](Cc1ccccc1)C(=O)O)OC)N(C)C(=O)[C@@H](NC(=O)[C@H](C(C)C)N(C)C(=O)CCCCCN1C(=O)C=CC1=O)C(C)C [MC-MMAP, Maleimidocaproyl-monomethylauristatin F, reference compound] ({Hexanoyl(6-maleimido)}-[NMeV]V[Dil][Dolaproine]F-OH)",–,–,–,–,–,–,–,–,–,–,"IC50 Karpas 299 (Karpas 299; [8]): 3 ng/mL; IC50 L540cy (L540cy; [8]): 7 ng/mL; IC50 L428 (L428 [2]; [8]): 1 ng/mL; IC50 ARH-77 (ARH-77): 255 ng/mL; IC50 Ramos (Ramos): 7 ng/mL; IC50 SUDHL-4 (SUDHL-4): ~10,000 ng/mL; IC50 MCF-7 (MCF-7): 3 ng/mL; IC50 SKOV-3 (SKOV-3): 2450 ng/mL; IC50 H3396 (H3396): 42 ng/mL; IC50 L2987 (L2987): 626 ng/mL; IC50 RCA (RCA): 7400 ng/mL"
AF-Trimethyllysine-Proline-diaminoethane-propionyl-maleimide [AF-Me3Lys-Pro],20,298 ng/mL,11,24,78,30,>1000,0.6,0.8,0.09,–
vc-PABC-MMAF [reference compound],7,22 ng/mL,3,7,10,14,>1000,3,3,0.5,"IC50 786-O (786-O; [9]): 5 ng/mL; IC50 Caki-1 (Caki-1; [9]): 12 ng/mL; IC50 L428 (L428 [1]; Table 5, h1F6 conjugates): 4 ng/mL; IC50 HCT-116 (CD70−) (HCT-116 (CD70−); Table 5, ~4 drugs/Ab): >1000 ng/mL; IC50 Caki-2 (Caki-2): 11 ng/mL"
AF-β-alanine-(D)Aspartic Acid-diaminoethane-propionyl maleimide [AF-β-Ala-(D)Asp],525,">10,000 ng/mL",1585,1096,93,132,>1000,371,1.6,0.5,–
AF-Asparagine-(D)Lysine-diaminoethane-propionyl maleimide [AF-Asn-(D)Lys],19,417 ng/mL,10,24,60,28,>1000,44,4,0.1,IC50 786-O (786-O; [5]): 10 ng/mL; IC50 786-O (786-O; [6]): 10 ng/mL; IC50 786-O (786-O; [7]): 10 ng/mL; IC50 LP-1 (LP-1; [5]): 479 ng/mL; IC50 LP-1 (LP-1; [6]): 479 ng/mL; IC50 LP-1 (LP-1; [7]): 479 ng/mL; IC50 Caki-1 (Caki-1; [5]): 6 ng/mL; IC50 Caki-1 (Caki-1; [6]): 6 ng/mL; IC50 Caki-1 (Caki-1; [7]): 6 ng/mL; IC50 L-428 (L428 [1]; [5]): 9 ng/mL; IC50 L-428 (L428 [1]; [6]): 9 ng/mL; IC50 L-428 (L428 [1]; [7]): 9 ng/mL; IC50 UMRC-3 (UMRC-3; [5]): 32 ng/mL; IC50 UMRC-3 (UMRC-3; [6]): 32 ng/mL; IC50 UMRC-3 (UMRC-3; [7]): 32 ng/mL; tolerability at 100 mg/kg dose (in words) [3]: tolerated
MMAF-Asparagine-(D)Lysine-diaminoethane-propionyl maleimide [MMAF-Asn-(D)Lys],–,–,–,–,–,–,–,–,–,–,IC50 786-O (786-O; [5]): 9 ng/mL; IC50 LP-1 (LP-1; [5]): 110 ng/mL; IC50 Caki-1 (Caki-1; [5]): 7 ng/mL; IC50 L-428 (L428 [1]; [5]): 7 ng/mL; IC50 UMRC-3 (UMRC-3; [5]): 19 ng/mL; tolerability at 100 mg/kg dose (in words) [3]: animal loss
AF-Tyrosine-(D)Aspartic Acid-diaminoethane-propionyl maleimide [AF-Tyr-(D)Asp],24,398 ng/mL,9,27,72,32,>1000,0.6,0.7,0.06,–
AF-Asparagine-diaminoethane-propionyl maleimide [AF-Asn],–,–,–,–,–,–,–,–,–,–,"IC50 786-O (786-O; [7]): 10 ng/mL; IC50 LP-1 (LP-1; [7]): 209 ng/mL; IC50 Caki-1 (Caki-1; [7]): 6 ng/mL; IC50 L-428 (L428 [1]; [7]): 9 ng/mL; IC50 UMRC-3 (UMRC-3; [7]): 28 ng/mL; tolerability at 50 mg/kg dose (in words) ([3]; single dose 50 mg/kg, FIG. 15): toxic"
AF-Norvaline-(D)Aspartic Acid-diaminoethane-propionyl maleimide [AF-NorVal-(D)Asp],28,537 ng/mL,12,24,78,25,>1000,0.5,0.6,0.09,–
